The text below walks through data of patent publication US11802111B2, “Cyclobutyl amide monoacylglycerol lipase modulators” (Janssen Pharmaceutica NV, priority 2020, dated 2023).

In the experiment the target is human MGL from HeLa cells (Homo sapiens (Human), UniProt Q99685). As to the kind of experiment: MGL in vitro activity assay ([glycerol-1,3-3H]-oleoyl glycerol hydrolysis, activated carbon filtration). It counts as biochemical. To be noted: 300 nM [Glycerol-1,3-3H]-oleoyl glycerol, one hour. As for the experimental part: The assay used to measure the in vitro activity of MGL is adapted from the assay used for another serine hydrolase (FAAH) described in Wilson et al., 2003 (A high-throughput-compatible assay for determining the activity of fatty acid amide hydrolase. Wilson S J, Lovenberg T W, Barbier A J. Anal Biochem. 2003 Jul. 15; 318(2):270-5). The assay consists of combining endogenously expressed MGL from HeLa cells with test compounds, adding [glycerol-1,3-^3H]-oleyl glycerol, incubating for one hour, and then measuring the amount of cleaved [1,3-^3H]-glycerol that passes through an activated carbon filter. The amount of cleaved, tritiated glycerol passing through the carbon filter is proportional to the activity of the MGL enzyme in a particular well/test condition.
Chain of human MGL from HeLa cells (Q99685 whole entry): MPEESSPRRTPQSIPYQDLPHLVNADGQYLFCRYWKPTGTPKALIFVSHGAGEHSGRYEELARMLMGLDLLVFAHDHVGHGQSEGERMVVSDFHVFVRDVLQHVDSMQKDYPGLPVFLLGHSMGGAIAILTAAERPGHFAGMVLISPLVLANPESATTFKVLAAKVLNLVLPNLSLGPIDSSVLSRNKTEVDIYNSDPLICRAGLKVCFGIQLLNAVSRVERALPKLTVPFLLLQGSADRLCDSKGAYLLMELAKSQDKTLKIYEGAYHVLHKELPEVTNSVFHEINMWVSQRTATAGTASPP
Standard conditions for this assay combine 300 nM [Glycerol-1,3-^3H]-oleoyl glycerol with human MGL from HeLa cells and test compounds for one hour, after which the reaction is filtered through activated carbon and tritium is measured in the flow through. The test compound concentration in screening mode is 10 μM, while the highest compound concentration in IC50 assays is determined empirically. MGL is the predominant hydrolase in HeLa cells/cell homogenates.
The molecule `Cc1c(C2CCC3(C2)CN(C(=O)[C@H]2C[C@@](C)(O)C2)C3)cccc1C(F)(F)F` (mixture of isomers) [Example 7, (rac)-((1s,3s)-3-Hydroxy-3-methylcyclobutyl)(6-(2-methyl-3-(trifluoromethyl)phenyl)-2-azaspiro[3.4]octan-2-yl)methanone] gave a half-inhibitory concentration (IC50) of 10 nM.
Turning to `Cc1cc(C(F)(F)F)ccc1C1CCC2(C1)CN(C(=O)[C@H]1C[C@@](C)(O)C1)C2` (mixture of isomers) [Example 8, (rac)-((1s,3s)-3-Hydroxy-3-methylcyclobutyl)(6-(2-methyl-4-(trifluoromethyl)phenyl)-2-azaspiro[3.4]octan-2-yl)methanone], the midpoint of inhibition, the IC50, lay at 5 nM.
On to `Cc1cc(OC(F)(F)F)ccc1C1CCC2(C1)CN(C(=O)[C@H]1C[C@@](C)(O)C1)C2` (mixture of isomers) [Example 9, (rac)-((1s,3s)-3-Hydroxy-3-methylcyclobutyl)(6-(2-methyl-4-(trifluoromethoxy)phenyl)-2-azaspiro[3.4]octan-2-yl)methanonemethanone], for which half-maximal inhibition (IC50) required 3.4 nM.
The value for `Cc1cc(Cl)ccc1C1CCC2(C1)CN(C(=O)[C@H]1C[C@@](C)(O)C1)C2` (mixture of isomers) [Example 10, (rac)-(6-(4-Chloro-2-methylphenyl)-2-azaspiro[3.4]octan-2-yl)((1s,3s)-3-hydroxy-3-methylcyclobutyl)methanone] was 22 nM; that for `Cc1c(Cl)cccc1C1CCC2(C1)CN(C(=O)[C@H]1C[C@@](C)(O)C1)C2` (mixture of isomers) [Example 11, (rac)-(6-(3-Chloro-2-methylphenyl)-2-azaspiro[3.4]octan-2-yl)((1s,3s)-3-hydroxy-3-methylcyclobutyl)methanone] was 37 nM.
`Cc1cc(C2CCC3(C2)CN(C(=O)[C@H]2C[C@@](C)(O)C2)C3)ccc1C(F)F` (mixture of isomers) [Example 12, (rac)-(6-(4-(Difluoromethyl)-3-methylphenyl)-2-azaspiro[3.4]octan-2-yl)((1s,3s)-3-hydroxy-3-methylcyclobutyl)methanone]: inhibition was half-maximal at 25 nM (IC50).
For `COc1cccc(C2CCC3(C2)CN(C(=O)[C@H]2C[C@@](C)(O)C2)C3)c1C` (mixture of isomers) [Example 13, (rac)-((1s,3s)-3-Hydroxy-3-methylcyclobutyl)(6-(3-methoxy-2-methylphenyl)-2-azaspiro[3.4]octan-2-yl)methanone], 159 nM corresponded to half-maximal inhibition (IC50).
With `Cc1ccc(C2CCC3(C2)CN(C(=O)[C@H]2C[C@@](C)(O)C2)C3)c(C)c1` (mixture of isomers) [Example 14, (rac)-(6-(2,4-Dimethylphenyl)-2-azaspiro[3.4]octan-2-yl)((1s,3s)-3-hydroxy-3-methylcyclobutyl)methanone] the figure was 26 nM; with `CCc1cc(C2CCC3(C2)CN(C(=O)[C@H]2C[C@@](C)(O)C2)C3)ccc1Cl` (mixture of isomers) [Example 15, (rac)-(6-(4-Chloro-3-ethylphenyl)-2-azaspiro[3.4]octan-2-yl)((1s,3s)-3-hydroxy-3-methylcyclobutyl)methanone], 6 nM.
As to `C[C@]1(O)C[C@@H](C(=O)N2CC3(CCC(c4ccc5c(c4)CCC5)C3)C2)C1` (mixture of isomers) [Example 16, (rac)-(6-(2,3-Dihydro-1H-inden-5-yl)-2-azaspiro[3.4]octan-2-yl)((1s,3s)-3-hydroxy-3-methylcyclobutyl)methanone], the concentration for half-maximal inhibition (IC50) is 10 nM.
In turn, `COc1cc(C2CCC3(C2)CN(C(=O)[C@H]2C[C@@](C)(O)C2)C3)ccc1C` (mixture of isomers) [Example 17, (rac)-((1s,3s)-3-Hydroxy-3-methylcyclobutyl)(6-(3-methoxy-4-methylphenyl)-2-azaspiro[3.4]octan-2-yl)methanone] returned an IC50 of 46 nM.
Molecule `C[C@]1(O)C[C@@H](C(=O)N2CC3(CCC(c4cccc(C5CC5)c4F)C3)C2)C1` (mixture of isomers) [Example 24, (rac)-(6-(3-Cyclopropyl-2-fluorophenyl)-2-azaspiro[3.4]octan-2-yl)((1s,3s)-3-hydroxy-3-methylcyclobutyl)methanone] returned an IC50 of 11 nM.
With `CC(C)(C)c1cccc(C2CCC3(C2)CN(C(=O)[C@H]2C[C@@](C)(O)C2)C3)n1` (mixture of isomers) [Example 29, (rac)-(6-(6-(tert-Butyl)pyridin-2-yl)-2-azaspiro[3.4]octan-2-yl)((1s,3s)-3-hydroxy-3-methylcyclobutyl)methanone] the figure was 7.7 nM.
The value for `CC(C)c1ccc(C2CCC3(C2)CN(C(=O)[C@H]2C[C@@](C)(O)C2)C3)cc1` (mixture of isomers) [Example 35, (rac)-((1s,3s)-3-Hydroxy-3-methylcyclobutyl)(6-(4-isopropylphenyl)-2-azaspiro[3.4]octan-2-yl)methanone] was 15 nM; that for `CC(C)(C)c1cccc(C2CCC3(CCN(C(=O)[C@H]4C[C@@](C)(O)C4)CC3)C2)c1` (mixture of isomers) [Example 38, (rac)-(2-(3-(tert-Butyl)phenyl)-8-azaspiro[4.5]decan-8-yl)((1s,3s)-3-hydroxy-3-methylcyclobutyl)methanone] was 20 nM.
With `CC(C)(C)c1ccc(C2CCC3(CCN(C(=O)[C@H]4C[C@@](C)(O)C4)CC3)C2)cc1` (mixture of isomers) [Example 39, (rac)-(2-(4-(tert-Butyl)phenyl)-8-azaspiro[4.5]decan-8-yl)((1s,3s)-3-hydroxy-3-methylcyclobutyl)methanone] the figure was 18 nM; with `C[C@]1(O)C[C@@H](C(=O)N2CC3(CCC(c4cccc(OC(F)(F)F)c4)C3)C2)C1` (mixture of isomers) [Example 40, (rac)-((1s,3s)-3-Hydroxy-3-methylcyclobutyl)(6-(3-(trifluoromethoxy)phenyl)-2-azaspiro[3.4]octan-2-yl)methanone], 23 nM; with `CC(C)(C)c1cccc(C2CCC3(C2)CN(C(=O)[C@H]2C[C@@](C)(O)C2)C3)c1` (mixture of isomers) [Example 43, (rac)-(6-(3-(tert-Butyl)phenyl)-2-azaspiro[3.4]octan-2-yl)((1s,3s)-3-hydroxy-3-methylcyclobutyl)methanone], 6.9 nM.
Consider `CC(C)c1cccc(C2CCC3(C2)CN(C(=O)[C@H]2C[C@@](C)(O)C2)C3)c1` (mixture of isomers) [Example 46, (rac)-((1s,3s)-3-Hydroxy-3-methylcyclobutyl)(6-(3-isopropylphenyl)-2-azaspiro[3.4]octan-2-yl)methanone], for which the IC50 worked out at 13 nM.
`C[C@]1(O)C[C@@H](C(=O)N2CC3(CCC(c4ccc(C5CC5)cc4)C3)C2)C1` (mixture of isomers) [Example 49, (rac)-(6-(4-Cyclopropylphenyl)-2-azaspiro[3.4]octan-2-yl)((1s,3s)-3-hydroxy-3-methylcyclobutyl)methanone] came in with an IC50 of 14 nM.
For `C[C@]1(O)C[C@@H](C(=O)N2CC3(CCC(c4ccc(OC(F)(F)F)cc4)C3)C2)C1` (mixture of isomers) [Example 52, (rac)-((1s,3s)-3-Hydroxy-3-methylcyclobutyl)(6-(4-(trifluoromethoxy)phenyl)-2-azaspiro[3.4]octan-2-yl)methanone], inhibition was half-maximal at 16 nM (IC50).
As to `C[C@]1(O)C[C@@H](C(=O)N2CC3(CCC(c4ccc(C(F)(F)F)cc4)C3)C2)C1` (mixture of isomers) [Example 55, (rac)-((1s,3s)-3-Hydroxy-3-methylcyclobutyl)(6-(4-(trifluoromethyl)phenyl)-2-azaspiro[3.4]octan-2-yl)methanone], the concentration for half-maximal inhibition (IC50) stood at 22 nM.
Molecule `C[C@]1(O)C[C@@H](C(=O)N2CC3(CCC(c4cccc(C5CC5)c4)C3)C2)C1` (mixture of isomers) [Example 58, (rac)-(6-(3-Cyclopropylphenyl)-2-azaspiro[3.4]octan-2-yl)((1s,3s)-3-hydroxy-3-methylcyclobutyl)methanone] yielded a concentration for half-maximal inhibition (IC50) of 41 nM.
Molecule `C[C@]1(O)C[C@@H](C(=O)N2CC3(CCC(c4cccc(C(F)(F)F)c4)C3)C2)C1` (mixture of isomers) [Example 61, (rac)-((1s,3s)-3-Hydroxy-3-methylcyclobutyl)(6-(3-(trifluoromethyl)phenyl)-2-azaspiro[3.4]octan-2-yl)methanone] gave an IC50 of 29 nM.
Turning to `C[C@]1(O)C[C@@H](C(=O)N2CC3(CCC(c4cccc(C5CCC5)c4)C3)C2)C1` (mixture of isomers) [Example 64, (rac)-(6-(3-Cyclobutylphenyl)-2-azaspiro[3.4]octan-2-yl)((1s,3s)-3-hydroxy-3-methylcyclobutyl)methanone], the IC50 was found to be 14 nM.
The value for `Cc1ccc(C2CCC3(C2)CN(C(=O)[C@H]2C[C@@](C)(O)C2)C3)cc1C(F)(F)F` (mixture of isomers) [Example 65, (rac)-((1s,3s)-3-Hydroxy-3-methylcyclobutyl)(6-(4-methyl-3-(trifluoromethyl)phenyl)-2-azaspiro[3.4]octan-2-yl)methanone] was 11 nM; that for `Cc1cc(C2CCC3(C2)CN(C(=O)[C@H]2C[C@@](C)(O)C2)C3)ccc1OC(F)(F)F` (mixture of isomers) [Example 66, (rac)-((1s,3s)-3-Hydroxy-3-methylcyclobutyl)(6-(3-methyl-4-(trifluoromethoxy)phenyl)-2-azaspiro[3.4]octan-2-yl)methanone] was 0.5 nM.
Take `Cc1cc(C2CCC3(C2)CN(C(=O)[C@H]2C[C@@](C)(O)C2)C3)ccc1C(F)(F)F` (mixture of isomers) [Example 67, (rac)-((1s,3s)-3-Hydroxy-3-methylcyclobutyl)(6-(3-methyl-4-(trifluoromethyl)phenyl)-2-azaspiro[3.4]octan-2-yl)methanone]: half-maximal inhibition (IC50) was put at 1.7 nM.
In turn, `Cc1cc(C2CCC3(C2)CN(C(=O)[C@H]2C[C@@](C)(O)C2)C3)ccc1Cl` (mixture of isomers) [Example 68, (rac)-(6-(4-Chloro-3-methylphenyl)-2-azaspiro[3.4]octan-2-yl)((1s,3s)-3-hydroxy-3-methylcyclobutyl)methanone] came in with an IC50 of 12 nM.
